Source: patent US8404696B2, “Quinazoline-2,4-dione derivative, and medical compositions for the prophylaxis and treatment of cranial nerve disease containing the same” (Shin Poong Pharmaceutical Co., Ltd., priority 2008, dated 2013)

Columns and labels:
[1] = tested on: middle cerebral artery occlusion (MCAO) model; experiment: Anti-stroke effect in MCAO model, intravenous administration around reperfusion; type: in vivo, rats of SD species; conditions: 5 mg/kg iv; for Infarcted volume (Mean ± standard deviation): negative control 0.43 ± 0.02
Protocol: Male rats of SD species with 290-300 g of body weight were used as laboratory animals, and 8 rats were used in each experiment group. The operation was performed by using the method of Nagasawa et al. (Nagasawa, H. and Gogure, K. 1989, Stroke, 20: 1037-1043).
The rats were anesthetized by Ketamine, and the operation was performed as body temperature was maintained using thermoplate. The cerebral region was incised following the median line of the neck, and the left common carotid artery, internal carotid artery and external carotid artery were separated, taking care not to damage the vagus nerve. The common carotid artery and external carotid artery were ligatured, and a probe was inserted into the internal carotid artery from the branch point of the internal and external carotid arteries. And then the fundus of the middle cerebral artery was occluded by ligature just on the upper side of the insertion region. A probe was made by heating the end of a 4-0 nylon surgical suture (Dafilon, B. Braun, Germany) and cut into 30 mm. The 7-9 mm end of the probe was coated with the mixture of silcon (Xantopren VL plus, Heraeus Kulzer, Germany) and curing agent (Optosyl-Xantopren VL plus, Heraeus Kulzer, Germany), and the thickness was to be 0.3-0.4 mm. After the intervention of the probe insertion and the animals came out of the anesthetic, individuals in which neurological deficit symptom (right direction circling) was observed were included in the ischemia group.
After 3 hours of ischemia, the inserted probe was removed to reperfuse blood circulation. The brain was extracted after 24 hours, followed by histological staining.
The compound 3 was administered at a programmed time before or after insertion of the probe with oral or intravenous administration. TTC (2,3,5-triphenyltetrazolium chloride) staining was performed to estimate the damage of brain tissue by ischemia. Procephalon of the extracted brain was sliced into 2 mm of sequential slice by using brain matrix (ASI instrument, Warren, Mich., USA). The slices were put into 2% of TTC solution and incubated at 37° C. for 60 minutes for staining. The TTC stained brain slice was fixed in 10% of formalin buffer and the front of the each slice was photographed with a digital camera. The infarcted areas (cm^2) that were not stained with deep red in each acquired image were measured using an image analyzer, and total infarcted volume (cm^3) was calculated by multiplying the thickness of the slices
In the experiment, the probe was removed after stoke induction so that circulation was reperfused.

[2] = tested on: superoxide dismutase (SOD); experiment: Increase of superoxide dismutase (SOD) activity in mouse brain cells; type: cell-based; conditions: 100 μg/ml
Protocol: ROS inhibitory effect of compounds was represented to the dose suppressing 50% of production of reactive oxygen compared to control. […] The activity of superoxide dismutase (SOD) was measured by using a kit acquired in Sigma.

SH-SY5Y cells = experiment: Inhibitory effect on ZnSO4-mediated cytotoxicity (MTT assay); type: cell-based, humans; conditions: compound 50 μg/ml; 600 μM zinc sulfate, 24 hours
Protocol: SH-SY5Y cells were cultured with 3×10^4 cell concentration in 96 well plates, and the compound (50 μg/ml) was treated. After 30 minutes, 600 μM of zinc sulfate was treated to induce toxicity for 24 hours and survival rate of cells was measured by MTT assay.

[3] = treatment time 0.5 after reperfusion
[4] = treatment time 1 after reperfusion
[5] = treatment time 2 after reperfusion
[6] = treatment time 4 after reperfusion
[7] = treatment time 6 after reperfusion
[8] = treatment time 12 (hours) after reperfusion
[9] = treatment time 18 after reperfusion
[10] = treatment time 24 after reperfusion
[11] = treatment time −0.5 after reperfusion

SMILES: CC(=O)N(CCCCNCCCn1c(=O)[nH]c2ccccc2c1=O)CCCn1c(=O)[nH]c2ccccc2c1=O [Compound 3, N-[3-(2,4-dioxo-1,4-dihydro-2H-quinazolin-3-yl)propyl]-N-{4-[3-(2,4-dioxo-1,4-dihydro-2H-quinazolin-3-yl)propylamino]butyl}acetamide]
- Inhibitory percentage compared to negative control [1, 3]: 72.3%
- Infarcted volume (Mean ± standard deviation) [1, 3]: 0.12 ± 0.03 cm^3
- Inhibitory percentage compared to negative control [1, 4]: 53.8%
- Infarcted volume (Mean ± standard deviation) [1, 4]: 0.20 ± 0.04 cm^3
- Inhibitory percentage compared to negative control [1, 5]: 49.9%
- Infarcted volume (Mean ± standard deviation) [1, 5]: 0.22 ± 0.02 cm^3
- Inhibitory percentage compared to negative control [1, 6]: 47.9%
- Infarcted volume (Mean ± standard deviation) [1, 6]: 0.22 ± 0.09 cm^3
- Inhibitory percentage compared to negative control [1, 7]: 60.9%
- Infarcted volume (Mean ± standard deviation) [1, 7]: 0.17 ± 0.04 cm^3
- Inhibitory percentage compared to negative control [1, 8]: 62.7%
- Infarcted volume (Mean ± standard deviation) [1, 8]: 0.16 ± 0.04 cm^3
- Inhibitory percentage compared to negative control [1, 9]: 13.5%
- Infarcted volume (Mean ± standard deviation) [1, 9]: 0.37 ± 0.03 cm^3
- Inhibitory percentage compared to negative control [1, 10]: 16.3%
- Infarcted volume (Mean ± standard deviation) [1, 10]: 0.36 ± 0.08 cm^3
- Inhibitory percentage compared to negative control [1, 11]: 67.2%
- Infarcted volume (Mean ± standard deviation) [1, 11]: 0.14 ± 0.03 cm^3
- Increase of SOD activity, compared to control [2]: 3.2 ± 2.7
- inhibitory percentage, zinc-induced toxicity (SH-SY5Y cells): 17.6 ± 3.5%
